Assay results: US6689813B2 (Biostatin Gyogyszerkutato-Fejleszto kft., priority 1998, dated 2004)
Where no end group is shown, it is not given here. [ ]: non-standard residue; d: D form. βAsp(indolinyl) = β-Asp(indolinyl) N-terminal residue

Key:
[1] = system: Wistar rats; test: 0.5% dextran-induced non-neurogenic inflammation (foot swelling, plethysmometer) after chronic denervation; type: in vivo, rat
Procedure: This test is based on the fact that a non-neurogenic, so-called clearly chemical inflammation can be induced by chemical excitation (e.g. by dextran, carrageenin, formalin) on a chronically denervated body area at least 5 days following the transsection of the nerve. These chemical agents release inflammation-inducing substances (histamine, bradykinin, PAF, prostaglandins and leucotrienes) from immunocytes, chiefly from mast cells.
Dextran solution (0.1 ml, 0.5%) is administered into both feet, underneath the plantar skin of Wistar rats (5 to 7 animals in each group) anaesthetized by nembutal (40 mg/kg i.v.) 5 days after bilateral denervation (transsection of the saphenous and sciatic nerves) of the lower limbs. The pretreated animals received somatostatin (SS), ocreotide or TT-232 (10 μg/kg i.p.) 10 minutes earlier. Before the administration of dextran (0 minute value), then after 10, 20 and 30 minutes, respectively, the swelling of the feet was measured by using a plethysmometer (Ugo Basil). Dextran elicits the so-called clearly chemical inflammation in the feet deprived of nerve supply (innervation) through the transmitters released from the mast cells.
A dose/effect ratio was determined for each substance.

[2] = system: Wistar rats; test: 1% mustard oil-induced neurogenic inflammation (Evans blue plasma extravasation, foot skin); type: in vivo, rat; conditions: for Decrease % (Evans blue extravasation vs control) / Evans blue extravasation: 20 μg/kg i.p.; for Decrease % (Evans blue extravasation vs control): 1% mustard oil; for Evans blue extravasation: 1% mustard oil on feet, control 169.525; for inhibition of mustard oil-induced neurogenic inflammation (in words): 20 μg/kg, 20 minutes after i.p. administration
Procedure: Thirty minutes after acute bilateral denervation of the lower limbs (transsection of the saphenous and sciatic nerves), 50 mg/kg of Evans blue dye was administered to the tail vein of nembutal-anaesthetized (pentobarbital, 40 mg/kg i.p.) Wistar rats (150-220 g body weight; 5 to 7 animals in each group). […] The mustard oil induces a so-called neurogenic inflammation by the selective stimulation of the peripheral endings of CSPAN's and by releasing the mediators being present therein (chiefly tachykinins and CGRP); this neurogenic inflammation appears as a vasodilatation in the area of arterioles and in the form of a plasma extravasation at the venular side. Since the dye Evans blue is bound to serum albumin in the vascular bed, its precipitation and accumulation in the upper skin surface of foot are proportional to the extent of plasma extravasation. Thus, the quantitative determination of intensity of the inflammation becomes possible. After the painting with mustard oil, the animals were bled, the foot dorsum skins were cut out and their weights were determined. The amount of dye extracted during 72 hours of incubation in formamide was determined at 620 nm on a spectrophotometer (Spectromon 195). The amount (expressed as μg) of the extravasated Evans blue related to one g of wet tissue was calculated by means of the following formula:
Evans blue (μg/g)=E×V×k/m
E is the light absorption of the solution, V means the volume (ml) of the solution, m is the weight […] of the skin cut out from the foot dorsum skin; and k is a constant determined on the basis of a dilution series, which is characteristic of the dye solution.

[3] = system: Wistar rats; test: Analgetic action: vegetative (pseudoaffective) reflex responses to mustard oil and capsaicin under urethane anaesthesia; type: in vivo, rat; set-up: Increase in heart rate: unit not given here; conditions: 10 μg/kg i.p.
Excerpt: This test is based on the synchronous registration of several components of so-called pseudoaffective reflex responses, which can be induced on animals by pain-producing stimuli [Lim, R. K. S.: J. Comp. Neurol 118, 269-294 (1962)] under urethane anaesthesia.
A significant blood pressure increase of 45 mmHg as an average pressor response, heart rate increase of 85 (as an average) and hyperpnoea (the number of respirations increases by 61 per minute as an average) can be observed in control animals on the effect of strong chemonociceptive stimuli (painting of the lower limbs with 1% mustard oil or dropping a capsaicin solution of 100 μg/ml concentration into the eye) under urethane anaesthesia.
The blood pressure, heart rate and respiration of intact Wistar rats (5 to 7 animals in each group, with a body weight of 250 to 350 g) were continuously registered for 40 minutes through an arterial cannula as well as double ramifying trachea cannula. Ten minutes before beginning the measurement, the pretreated animals received intraperitoneally 10 μg/kg of somatostatin (SS), octreotide or TT-232, respectively. Both lower limbs of the animals were painted with mustard oil in the 3rd minute and capsaicin solution was dropped into their eyes in the 23rd minute. The vegetative responses given on these nociceptive stimuli were evaluated by using a specific computer program.

[4] = system: neurogenic inflammation; conditions: sodium salicylate 250 mg/kg i.v.; amidopyridine 200 mg/kg p.o.; phenylbutazone 100 mg/kg i.v.; flufenamic acid 20 mg/kg i.v.; indomethacin 10 mg/kg p.o.; cited from earlier work
[5] = Table 2.a, 10 mg/kg, 10 minutes
[6] = Table 2.a, 10 mg/kg, 30 minutes

## O=C(O)Cc1ccccc1Nc1c(Cl)cccc1Cl [Diclofenac, reference compound]
[1]; Table 2.a, 5 mg/kg, 20 minutes
  foot swelling %: 48.73 ± 4.84%
[1]; Table 2.a, 5 mg/kg, 30 minutes
  foot swelling %: 53.07 ± 3.95%
[1]; [5]
  foot swelling %: 24.35 ± 3.31%
[1]; [6]
  foot swelling %: 42.61 ± 3.55%
[1]; Table 2.a, 20 mg/kg, 10 minutes
  foot swelling %: 21.87 ± 2.84%
[1]; Table 2.a, 30 mg/kg, 10 minutes
  foot swelling %: 26.02 ± 1.79%
[1]; Table 2.a, 30 mg/kg, 30 minutes
  foot swelling %: 40.20 ± 1.73%

## O=C(NN=Cc1ccc(O)c(O)c1)C(=O)Nc1cccc([N+](=O)[O-])c1 [HDL 2722, 3′-nitrophenylamino-2-oxoacetyl-3″,4″-dihydroxyphenyl-hydra-zone]
[2]; 50 μg
  inhibition of 1% mustard oil-induced neurogenic inflammation (plasma extravasation): 62%

## Cc1cnc(NC(=O)C2=C(O)c3ccccc3S(=O)(=O)N2C)s1 [Meloxicam, reference compound]
[1]; Table 2.a, 0.2 mg/kg, 10 minutes
  foot swelling %: 27.60 ± 3.56%
[1]; Table 2.a, 0.2 mg/kg, 20 minutes
  foot swelling %: 39.99 ± 3.65%
[1]; Table 2.a, 0.2 mg/kg, 30 minutes
  foot swelling %: 45.81 ± 2.9%
[1]; Table 2.a, 0.5 mg/kg, 10 minutes
  foot swelling %: 27.24 ± 3.56%
[1]; Table 2.a, 0.5 mg/kg, 20 minutes
  foot swelling %: 38.86 ± 2.86%
[1]; Table 2.a, 0.5 mg/kg, 30 minutes
  foot swelling %: 44.92 ± 2.99%
[1]; Table 2.a, 1 mg/kg, 10 minutes
  foot swelling %: 24.34 ± 2.57%
[1]; Table 2.a, 1 mg/kg, 20 minutes
  foot swelling %: 36.46 ± 3.44%
[1]; Table 2.a, 1 mg/kg, 30 minutes
  foot swelling %: 46.63 ± 3.2%
[1]; [5]
  foot swelling %: 20.39 ± 2.26%
[1]; Table 2.a, 10 mg/kg, 20 minutes
  foot swelling %: 33.36 ± 1.85%
[1]; [6]
  foot swelling %: 39.34 ± 3.75%

## C[C@@H](O)[C@@H]1NC(=O)[C@H](CCCCN)NC(=O)[C@@H](Cc2c[nH]c3ccccc23)NC(=O)[C@H](Cc2ccccc2)NC(=O)[C@@H](NC(=O)[C@H](N)Cc2ccccc2)CSSC[C@@H](C(=O)N[C@H](CO)[C@@H](C)O)NC1=O [Octreotide, reference compound]
[2]
  Decrease % (Evans blue extravasation vs control): 3.952%
  Evans blue extravasation: 162.826 µg/g
  inhibition of mustard oil-induced neurogenic inflammation (in words): inactive
[1]; 10 μg/kg, even 40 minutes following the pretreatment
  prevention of dextran-induced non-neurogenic inflammation (in words): completely inactive
[1]; Table 2, 10 μg/kg i.p. 10 min before dextran, 10 minutes, control 32.97
  foot swelling %: 31.36%
[1]; Table 2, 10 μg/kg i.p. 10 min before dextran, 20 minutes, control 49.695
  foot swelling %: 47.7%
[1]; Table 2, 10 μg/kg i.p. 10 min before dextran, 30 minutes, control 56.68
  foot swelling %: 54.8%
[3]; 10 minutes before mustard oil
  protection against pseudoaffective reflex triad elicited by mustard oil and capsaicin (in words): completely inactive
[3]; after dropping capsaicin solution into the eye, control 47.5
  Increase in respiration rate: 42 per minute
[3]; after dropping capsaicin solution into the eye, control 55
  Increase in mean arterial pressure: 47.13 mmHg
[3]; after dropping capsaicin solution into the eye, control 143
  Increase in heart rate: 127
[3]; after painting the feet by mustard oil, control 45.4
  Increase in mean arterial pressure: 43.2 mmHg
[3]; after painting the feet by mustard oil, control 60.75
  Increase in respiration rate: 45 per minute
[3]; after painting the feet by mustard oil, control 84.8
  Increase in heart rate: 81.2

## Cc1c(N(C)C)c(=O)n(-c2ccccc2)n1C [amidopyridine]
[4]
  significant inhibitory effect on neurogenic inflammation: none

## O=C(O)c1ccccc1Nc1cccc(C(F)(F)F)c1 [flufenamic acid]
[4]
  significant inhibitory effect on neurogenic inflammation: none

## COc1ccc2c(c1)c(CC(=O)O)c(C)n2C(=O)c1ccc(Cl)cc1 [indomethacin]
[4]
  significant inhibitory effect on neurogenic inflammation: none

## O=C([O-])c1ccccc1O.[Na+] [sodium salicylate]
[4]
  significant inhibitory effect on neurogenic inflammation: none

## D-Phe-Cys-Tyr-D-Trp-Gly-Cys-Thr-NH2 ([dF]CY[dW]GCT-NH2; cysteine pairing not given here) [VZ-934]
[2]
  Decrease % (Evans blue extravasation vs control): 44.7%
  Evans blue extravasation: 93.7 µg/g
  inhibition of mustard oil-induced neurogenic inflammation (in words): significantly inhibited

## D-Phe-Cys-Tyr-D-Trp-Lys-Cys-Trp-NH2 ([dF]CY[dW]KCW-NH2; cysteine pairing not given here) [VZ-924]
[2]
  Decrease % (Evans blue extravasation vs control): 55.62%
  Evans blue extravasation: 75.26 µg/g
  inhibition of mustard oil-induced neurogenic inflammation (in words): significantly inhibited

## D-Phe-Cys-Tyr-Gly-Lys-Cys-Thr-NH2 ([dF]CYGKCT-NH2; cysteine pairing not given here) [VZ-1021]
[2]
  Decrease % (Evans blue extravasation vs control): 54.72%
  Evans blue extravasation: 76.72 µg/g
  inhibition of mustard oil-induced neurogenic inflammation (in words): significantly inhibited

## β-Asp(indolinyl)-Cys-Tyr-D-Trp-Lys-Cys-Thr-NH2 ({βAsp(indolinyl)}-CY[dW]KCT-NH2; cysteine pairing not given here) [VZ-927]
[2]
  Decrease % (Evans blue extravasation vs control): 60.44%
  Evans blue extravasation: 67.07 µg/g
  inhibition of mustard oil-induced neurogenic inflammation (in words): significantly inhibited
